Test results published in PMC11868595, “Safety, pharmacokinetics and efficacy of HA121-28 in patients with advanced solid tumors and RET fusion-positive non-small-cell lung cancer: a multicenter, open-label, single-arm phase 1/2 trial” (Signal Transduction and Targeted Therapy, 2025).
Marks after values point to notes of the source that are not given here.

Assays:
[1] = target: PDGFRα (Homo sapiens, UniProt P16234); test: Tyrosine kinase inhibition; format: biochemical
[2] = target: EGFR(T790M /L828R) (Homo sapiens, UniProt P00533, T790M); test: Tyrosine kinase inhibition; format: biochemical
[3] = target: ALK1 (Homo sapiens, UniProt P37023); test: Tyrosine kinase inhibition; format: biochemical
[4] = Ames test; conditions: in vitro Ames test
[5] = target: SRC (Homo sapiens, UniProt P12931); test: Tyrosine kinase inhibition; format: biochemical
[6] = target: RON (Homo sapiens, UniProt Q04912); test: Tyrosine kinase inhibition; format: biochemical
[7] = test system: human thyroid cancer TT tumors; test: TT tumors in nude mice; format: in vivo; conditions: for RTV ±SD / T/C / Terminal Tumor Volume: TT tumors
Excerpt: (§1) was higher than that of vandetanib .
as §1
Table S15. Efficacy of HA121-28 on human thyroid cancer TT tumors

[8] = test system: SGC-7901 cells; test: Tumor cell proliferation in vitro; format: cell-based, human; conditions: SGC7901
[9] = Phase 1 clinical pharmacokinetics in plasma; format: in vivo, human; conditions: Single dose

Chain of RON (Q04912 25-1400): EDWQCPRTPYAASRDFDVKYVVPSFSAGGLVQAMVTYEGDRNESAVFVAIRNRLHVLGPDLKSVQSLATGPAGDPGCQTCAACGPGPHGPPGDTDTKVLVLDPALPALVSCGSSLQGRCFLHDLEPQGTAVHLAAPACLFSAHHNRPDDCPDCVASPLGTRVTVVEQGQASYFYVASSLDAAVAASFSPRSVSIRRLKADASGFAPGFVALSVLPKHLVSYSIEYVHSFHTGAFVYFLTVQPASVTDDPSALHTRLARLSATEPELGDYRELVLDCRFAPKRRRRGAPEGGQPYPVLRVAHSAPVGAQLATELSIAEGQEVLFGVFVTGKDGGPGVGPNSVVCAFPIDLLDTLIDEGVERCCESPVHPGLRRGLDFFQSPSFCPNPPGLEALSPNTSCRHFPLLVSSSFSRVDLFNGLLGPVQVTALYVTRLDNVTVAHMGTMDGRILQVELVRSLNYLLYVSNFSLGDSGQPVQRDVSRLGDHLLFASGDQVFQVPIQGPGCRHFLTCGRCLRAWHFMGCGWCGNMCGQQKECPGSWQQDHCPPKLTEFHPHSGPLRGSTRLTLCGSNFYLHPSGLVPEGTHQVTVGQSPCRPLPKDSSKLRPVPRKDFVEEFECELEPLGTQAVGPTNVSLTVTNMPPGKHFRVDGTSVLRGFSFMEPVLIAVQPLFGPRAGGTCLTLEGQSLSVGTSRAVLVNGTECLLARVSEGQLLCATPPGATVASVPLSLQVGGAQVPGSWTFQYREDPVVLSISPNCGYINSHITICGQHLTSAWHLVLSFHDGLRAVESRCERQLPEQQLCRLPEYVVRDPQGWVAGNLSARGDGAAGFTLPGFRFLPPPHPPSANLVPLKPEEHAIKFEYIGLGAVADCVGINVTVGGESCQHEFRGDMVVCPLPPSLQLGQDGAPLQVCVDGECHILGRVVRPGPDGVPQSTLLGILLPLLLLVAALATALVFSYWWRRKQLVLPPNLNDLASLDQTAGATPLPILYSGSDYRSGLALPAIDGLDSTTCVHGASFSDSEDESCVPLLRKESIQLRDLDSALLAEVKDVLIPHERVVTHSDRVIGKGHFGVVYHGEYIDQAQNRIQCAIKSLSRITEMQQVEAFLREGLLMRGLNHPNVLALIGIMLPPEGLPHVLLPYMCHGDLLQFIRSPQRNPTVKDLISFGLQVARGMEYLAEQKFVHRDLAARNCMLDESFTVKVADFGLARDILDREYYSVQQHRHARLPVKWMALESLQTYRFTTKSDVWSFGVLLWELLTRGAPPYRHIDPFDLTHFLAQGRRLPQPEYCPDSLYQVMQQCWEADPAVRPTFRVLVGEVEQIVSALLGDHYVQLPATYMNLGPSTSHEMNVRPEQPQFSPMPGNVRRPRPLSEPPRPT
Chain of SRC (P12931 whole entry): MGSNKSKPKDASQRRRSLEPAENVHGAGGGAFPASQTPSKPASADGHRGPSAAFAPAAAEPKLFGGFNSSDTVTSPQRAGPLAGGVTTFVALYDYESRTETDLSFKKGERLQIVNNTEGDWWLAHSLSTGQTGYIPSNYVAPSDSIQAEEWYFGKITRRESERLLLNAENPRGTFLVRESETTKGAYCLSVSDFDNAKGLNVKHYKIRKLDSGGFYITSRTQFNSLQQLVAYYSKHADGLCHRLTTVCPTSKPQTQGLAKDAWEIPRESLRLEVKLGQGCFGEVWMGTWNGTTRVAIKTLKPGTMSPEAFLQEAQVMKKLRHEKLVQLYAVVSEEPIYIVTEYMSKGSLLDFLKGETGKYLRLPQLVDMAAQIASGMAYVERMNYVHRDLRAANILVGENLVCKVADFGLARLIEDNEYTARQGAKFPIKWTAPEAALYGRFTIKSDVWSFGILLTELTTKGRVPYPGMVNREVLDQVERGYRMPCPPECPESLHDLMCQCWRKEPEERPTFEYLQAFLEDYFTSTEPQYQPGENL
Chain of UniProt P00533 (P00533 695-1210 T790M, form open): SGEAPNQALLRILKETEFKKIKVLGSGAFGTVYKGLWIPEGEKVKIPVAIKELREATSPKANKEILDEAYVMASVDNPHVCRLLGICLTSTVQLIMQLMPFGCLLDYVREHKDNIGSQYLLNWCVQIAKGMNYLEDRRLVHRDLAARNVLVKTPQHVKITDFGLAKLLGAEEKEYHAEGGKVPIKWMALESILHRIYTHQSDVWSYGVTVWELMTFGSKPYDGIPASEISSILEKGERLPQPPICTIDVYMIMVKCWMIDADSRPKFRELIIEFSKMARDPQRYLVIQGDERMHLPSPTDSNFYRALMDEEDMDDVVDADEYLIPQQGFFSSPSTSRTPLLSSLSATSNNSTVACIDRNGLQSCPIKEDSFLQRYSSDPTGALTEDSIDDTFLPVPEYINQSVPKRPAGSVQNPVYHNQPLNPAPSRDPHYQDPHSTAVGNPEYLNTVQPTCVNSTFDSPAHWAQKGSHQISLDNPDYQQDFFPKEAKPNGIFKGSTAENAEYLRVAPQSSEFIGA
Chain of PDGFRα (P16234 24-1089): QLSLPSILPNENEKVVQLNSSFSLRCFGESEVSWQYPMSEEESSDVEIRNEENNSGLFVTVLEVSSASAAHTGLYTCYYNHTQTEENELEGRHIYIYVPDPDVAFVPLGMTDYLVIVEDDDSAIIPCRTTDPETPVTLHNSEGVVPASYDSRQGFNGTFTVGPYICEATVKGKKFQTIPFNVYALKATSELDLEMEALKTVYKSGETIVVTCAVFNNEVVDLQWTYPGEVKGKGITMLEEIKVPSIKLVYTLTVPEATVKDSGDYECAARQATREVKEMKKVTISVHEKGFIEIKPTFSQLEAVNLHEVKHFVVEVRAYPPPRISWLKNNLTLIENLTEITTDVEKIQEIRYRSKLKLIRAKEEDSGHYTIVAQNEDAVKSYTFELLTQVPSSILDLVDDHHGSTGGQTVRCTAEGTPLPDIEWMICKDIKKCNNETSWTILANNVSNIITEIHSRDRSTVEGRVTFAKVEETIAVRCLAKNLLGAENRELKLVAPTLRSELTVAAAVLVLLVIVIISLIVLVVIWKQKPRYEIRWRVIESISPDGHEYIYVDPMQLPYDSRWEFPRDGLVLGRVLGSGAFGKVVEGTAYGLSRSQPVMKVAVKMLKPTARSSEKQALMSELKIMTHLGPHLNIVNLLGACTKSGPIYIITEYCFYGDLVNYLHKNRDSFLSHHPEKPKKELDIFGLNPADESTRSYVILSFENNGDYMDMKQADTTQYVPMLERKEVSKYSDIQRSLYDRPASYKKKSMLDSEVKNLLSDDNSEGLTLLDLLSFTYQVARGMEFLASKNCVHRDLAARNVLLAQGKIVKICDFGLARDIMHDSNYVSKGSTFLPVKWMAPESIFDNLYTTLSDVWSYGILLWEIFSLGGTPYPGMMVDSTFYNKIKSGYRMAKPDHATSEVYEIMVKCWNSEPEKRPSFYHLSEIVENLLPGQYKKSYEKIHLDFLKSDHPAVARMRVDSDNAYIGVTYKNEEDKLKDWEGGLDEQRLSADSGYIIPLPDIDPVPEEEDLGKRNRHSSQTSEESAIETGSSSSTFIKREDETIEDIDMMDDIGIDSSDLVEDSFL
Chain of ALK1 (P37023 142-503 limits assumed): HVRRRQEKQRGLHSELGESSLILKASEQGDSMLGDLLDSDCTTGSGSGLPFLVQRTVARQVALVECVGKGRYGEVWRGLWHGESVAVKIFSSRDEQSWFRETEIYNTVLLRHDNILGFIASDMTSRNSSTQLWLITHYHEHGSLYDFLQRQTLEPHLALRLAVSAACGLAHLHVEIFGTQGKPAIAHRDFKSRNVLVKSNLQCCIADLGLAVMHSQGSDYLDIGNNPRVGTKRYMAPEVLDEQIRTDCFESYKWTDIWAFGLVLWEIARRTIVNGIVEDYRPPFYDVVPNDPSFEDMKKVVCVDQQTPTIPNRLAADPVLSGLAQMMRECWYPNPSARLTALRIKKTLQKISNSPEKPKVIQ

Compound: COc1cc2c(Nc3ccc(Br)cc3F)ncnc2cc1OCCCCN(C)C.Cl.Cl [HA121-28, N-(4-bromo-2-fluorophenyl)-7-(4-(dimethylamino)butoxy)-6-methoxy quinazolin-4-amine dihydrochloride]
- IC50 [1]: 58.7 nM
- IC50 [2]: 166 nM
- IC50 [3]: 2590 nM
- genetic toxicity [4]: negative
- IC50 [5]: 65.8 nM
- IC50 [6]: > 10000 nM
- in vivo anti-tumor effect ([7]; 50 mg/kg): tumor shrinkage was observed
- RTV ±SD ([7]; 25 mg/kg): 2.1±0.6
- T/C ([7]; 25 mg/kg): 33.8%
- Terminal Tumor Volume ([7]; 25 mg/kg): 307.4±69.5** mm^3
- RTV ±SD ([7]; 50 mg/kg): 0.8±0.2
- T/C ([7]; 50 mg/kg): 13.6%
- Terminal Tumor Volume ([7]; 50 mg/kg): 131.9±66.5** mm^3
- RTV ±SD ([7]; 75 mg/kg): 0.5±0.2
- T/C ([7]; 75 mg/kg): 8.7%
- Terminal Tumor Volume ([7]; 75 mg/kg): 86.9±40.0** mm^3
- IC50 [8]: 4360 ± 338 nM
- AUC0-24, Mean (CV%) ([9]; 25 mg (N=1)): 237.1 (-) h*ng/mL
- AUC0-t, Mean (CV%) ([9]; 25 mg (N=1)): 906.8 (-) h*ng/mL
- CLz/F, Mean (CV%) ([9]; 25 mg (N=1)): 18.5 (-) L/h
- Cmax, Mean (CV%) ([9]; 25 mg (N=1)): 15.6 (-) ng/mL
- Tmax, median [Min-Max] ([9]; 25 mg (N=1)): 4 [4,4] h
- Vz/F, Mean (CV%) ([9]; 25 mg (N=1)): 2971.7 (-) L
- t1/2z, Mean (CV%) ([9]; 25 mg (N=1)): 111.2 (-) h
- AUC0-24, Mean (CV%) ([9]; 50 mg (N=1)): 283.0 (-) h*ng/mL
- AUC0-t, Mean (CV%) ([9]; 50 mg (N=1)): 1645.1 (-) h*ng/mL
- CLz/F, Mean (CV%) ([9]; 50 mg (N=1)): 19.5 (-) L/h
- Cmax, Mean (CV%) ([9]; 50 mg (N=1)): 15.6 (-) ng/mL
- Tmax, median [Min-Max] ([9]; 50 mg (N=1)): 24 [24,24] h
- Vz/F, Mean (CV%) ([9]; 50 mg (N=1)): 3137.7 (-) L
- t1/2z, Mean (CV%) ([9]; 50 mg (N=1)): 111.6 (-) h
- AUC0-24, Mean (CV%) ([9]; 100 mg (N=4)): 725.9 (306.5) h*ng/mL
- AUC0-t, Mean (CV%) ([9]; 100 mg (N=4)): 3460.0 (1126.6) h*ng/mL
- CLz/F, Mean (CV%) ([9]; 100 mg (N=4)): 18.8 (4.8) L/h
- Cmax, Mean (CV%) ([9]; 100 mg (N=4)): 46.4 (27.0) ng/mL
- Tmax, median [Min-Max] ([9]; 100 mg (N=4)): 6 [4-24] h
- Vz/F, Mean (CV%) ([9]; 100 mg (N=4)): 2303.3 (37.5) L
- t1/2z, Mean (CV%) ([9]; 100 mg (N=4)): 89.1 (23.8) h
- AUC0-24, Mean (CV%) ([9]; 200 mg (N=4)): 1884.6 (514.6) h*ng/mL
- AUC0-t, Mean (CV%) ([9]; 200 mg (N=4)): 7763.0 (2539.2) h*ng/mL
- CLz/F, Mean (CV%) ([9]; 200 mg (N=4)): 21.6 (7.0) L/h
- Cmax, Mean (CV%) ([9]; 200 mg (N=4)): 115.5 (32.7) ng/mL
- Tmax, median [Min-Max] ([9]; 200 mg (N=4)): 8 [8-10] h
- Vz/F, Mean (CV%) ([9]; 200 mg (N=4)): 2627.1 (1416.0) L
- t1/2z, Mean (CV%) ([9]; 200 mg (N=4)): 80.7 (15.3) h
- AUC0-24, Mean (CV%) ([9]; 300 mg (N=4)): 3037.9 (854.0) h*ng/mL
- AUC0-t, Mean (CV%) ([9]; 300 mg (N=4)): 11276.6 (2463.8) h*ng/mL
- CLz/F, Mean (CV%) ([9]; 300 mg (N=4)): 19.1 (3.8) L/h
- Cmax, Mean (CV%) ([9]; 300 mg (N=4)): 193.0 (70.1) ng/mL
- Tmax, median [Min-Max] ([9]; 300 mg (N=4)): 8 [2-8] h
- Vz/F, Mean (CV%) ([9]; 300 mg (N=4)): 2307.1 (724.2) L
- t1/2z, Mean (CV%) ([9]; 300 mg (N=4)): 83.1 (16.6) h
- AUC0-24, Mean (CV%) ([9]; 450 mg (N=7)): 6271.3 (2275.9) h*ng/mL
- AUC0-t, Mean (CV%) ([9]; 450 mg (N=7)): 20218.4 (7301.9) h*ng/mL
- CLz/F, Mean (CV%) ([9]; 450 mg (N=7)): 16.2 (6.6) L/h
- Cmax, Mean (CV%) ([9]; 450 mg (N=7)): 374.7 (140.6) ng/mL
- Tmax, median [Min-Max] ([9]; 450 mg (N=7)): 8 [4-8] h
- Vz/F, Mean (CV%) ([9]; 450 mg (N=7)): 2009.5 (706.2) L
- t1/2z, Mean (CV%) ([9]; 450 mg (N=7)): 87.6 (11.7) h
- AUC0-24, Mean (CV%) ([9]; 600 mg (N=5)): 8403.6 (4593.9) h*ng/mL
- AUC0-t, Mean (CV%) ([9]; 600 mg (N=5)): 26818.4 (14650.1) h*ng/mL
- CLz/F, Mean (CV%) ([9]; 600 mg (N=5)): 19.7 (8.1) L/h
- Cmax, Mean (CV%) ([9]; 600 mg (N=5)): 500.0 (224.3) ng/mL
- Tmax, median [Min-Max] ([9]; 600 mg (N=5)): 8 [4-8] h
- Vz/F, Mean (CV%) ([9]; 600 mg (N=5)): 2163.4 (719.0) L
- t1/2z, Mean (CV%) ([9]; 600 mg (N=5)): 80.8 (19.4) h
- AUC0-24, Mean (CV%) ([9]; 800 mg (N=3)): 9721.8 (2598.4) h*ng/mL
- AUC0-t, Mean (CV%) ([9]; 800 mg (N=3)): 33030.6 (10820.6) h*ng/mL
- CLz/F, Mean (CV%) ([9]; 800 mg (N=3)): 19.9 (9.2) L/h
- Cmax, Mean (CV%) ([9]; 800 mg (N=3)): 610.0 (200.1) ng/mL
- Tmax, median [Min-Max] ([9]; 800 mg (N=3)): 8 [4-8] h
- Vz/F, Mean (CV%) ([9]; 800 mg (N=3)): 2001.6 (613.2) L
